Results from ChEMBL document CHEMBL1201862, “PubChem BioAssay data set” (2004).
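Grown in 96-well plates, cells were treated for 48 hours with each compound at five concentrations. Insufficient inhibition: endpoint recorded as highest concentration tested. The concentration for 50% growth inhibition is given as GI50.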 The source made the active and inactive calls. Cut-off read from the data, not from the text of the source: active = GI50 up to about 1.1 µM and inactive = higher.

What was measured:
Experiment in all cases: inhibition of tumour cell growth, NCI panel, 48 h
[1] = system: OVCAR-3
[2] = system: SF-295
[3] = system: COLO 205
[4] = system: NCI-H522
[5] = system: HCT-15
[6] = system: CCRF-CEM
[7] = system: HOP-62
[8] = system: OVCAR-8
[9] = system: A549
[10] = system: HOP-92
[11] = system: SW-620
[12] = system: CAKI-1
[13] = system: RXF 393
[14] = system: ACHN
[15] = system: UACC-257
[16] = system: Malme-3M
[17] = system: A498
[18] = system: EKVX

Row | Compound | GI50 [1] | GI50 [2] | GI50 [3] | GI50 [4] | GI50 [5] [µM] | GI50 [6] | GI50 [7] | GI50 [8] | GI50 [9] | GI50 [10] | GI50 [11] | GI50 [12] | GI50 [13] | GI50 [14] | GI50 [15] | GI50 [16] | GI50 [17] | GI50 [18]
1 | N=C(N)N/N=C(/c1nc2ccc([N+](=O)[O-])cc2[nH]c1=O)C(O)c1ccc([N+](=O)[O-])cc1 (configuration not stated) | 94.2 µM (inactive) | > 100 µM (inactive) | 79.8 µM (inactive) | 4.54 µM (inactive) | 11.5 | > 100 µM (inactive) | 37.8 µM (inactive) | > 100 µM (inactive) | 60.8 µM (inactive) | > 100 µM (inactive) | > 100 µM (inactive) | 28.4 µM (inactive) | > 100 µM (inactive) | 21.3 µM (inactive) | > 100 µM (inactive) | 83.8 µM (inactive) |  | 
2 | CSC(C1c2ccccc2N(C)c2[nH]c(=O)n(C)c(=O)c21)S(=O)(=O)c1ccc(C)cc1 (configuration not stated) | > 100 µM (inactive) | > 100 µM (inactive) | > 100 µM (inactive) | 20.1 µM (inactive) | 64.3 | 33.3 µM (inactive) | > 100 µM (inactive) | > 100 µM (inactive) | > 100 µM (inactive) | > 100 µM (inactive) | > 100 µM (inactive) | > 100 µM (inactive) |  |  | 60 µM (inactive) | > 100 µM (inactive) | > 100 µM (inactive) | 33.6 µM (inactive)
3 | Cn1cc2c(n1)c(N/N=C/c1ccccc1)nn1nnnc21 | > 100 µM (inactive) | > 100 µM (inactive) | > 100 µM (inactive) |  | > 100 | > 100 µM (inactive) | > 100 µM (inactive) | > 100 µM (inactive) | > 100 µM (inactive) | > 100 µM (inactive) | > 100 µM (inactive) | > 100 µM (inactive) | > 100 µM (inactive) | > 100 µM (inactive) | > 100 µM (inactive) | > 100 µM (inactive) | > 100 µM (inactive) | > 100 µM (inactive)
4 | O=C1C2Nc3ccccc3SC2C(=O)N1c1ccccc1C(F)(F)F (configuration not stated) | 22.3 µM (inactive) | 14.9 µM (inactive) |  | 15.3 µM (inactive) | 15.9 | 15.2 µM (inactive) | 25.4 µM (inactive) | 33.7 µM (inactive) | 20.2 µM (inactive) | 25 µM (inactive) | 21.4 µM (inactive) | 24.9 µM (inactive) | 7.45 µM (inactive) | 40.3 µM (inactive) | > 100 µM (inactive) | 19.7 µM (inactive) |  | 54.8 µM (inactive)
5 | c1ccc(N2CCN(CCN3CCc4c([nH]c5ccccc45)C3c3cccnc3)CC2)cc1 (configuration not stated) | > 100 µM (inactive) | 80 µM (inactive) |  | > 100 µM (inactive) | > 100 | > 100 µM (inactive) | 89.1 µM (inactive) | 88.1 µM (inactive) | > 100 µM (inactive) | 14.4 µM (inactive) | > 100 µM (inactive) | > 100 µM (inactive) |  | > 100 µM (inactive) | > 100 µM (inactive) |  | > 100 µM (inactive) | > 100 µM (inactive)
6 | O=c1c2ccccc2nc(-c2ccccc2)n1NC(=S)Nc1cccc(Cl)c1 |  | 64.4 µM (inactive) | > 100 µM (inactive) | 46.7 µM (inactive) | > 100 | > 100 µM (inactive) | 60.3 µM (inactive) | > 100 µM (inactive) | > 100 µM (inactive) | 31.8 µM (inactive) | > 100 µM (inactive) | > 100 µM (inactive) | 27.2 µM (inactive) | > 100 µM (inactive) | > 100 µM (inactive) | > 100 µM (inactive) | > 100 µM (inactive) | 
7 | COC(=O)NN=C1C(C)(C)C(=O)C1(C)C | > 100 µM (inactive) | > 100 µM (inactive) | > 100 µM (inactive) | > 100 µM (inactive) |  | > 100 µM (inactive) | > 100 µM (inactive) | > 100 µM (inactive) | > 100 µM (inactive) | > 100 µM (inactive) | > 100 µM (inactive) |  | > 100 µM (inactive) | > 100 µM (inactive) | > 100 µM (inactive) | > 100 µM (inactive) | > 100 µM (inactive) | > 100 µM (inactive)
8 | COc1cccc(NC(=O)CC(=O)N2NC(c3ccccc3)C(/N=N/c3cccc(C(=O)O)c3)C2=O)c1 (configuration not stated) | 38.2 µM (inactive) | > 100 µM (inactive) | > 10 µM (inactive) |  |  |  | > 100 µM (inactive) | > 100 µM (inactive) | > 100 µM (inactive) | > 100 µM (inactive) | > 100 µM (inactive) | 89.5 µM (inactive) | 49.5 µM (inactive) | > 100 µM (inactive) | > 100 µM (inactive) | > 100 µM (inactive) | > 100 µM (inactive) | > 100 µM (inactive)
9 | CC1(C)OC(=O)C(C#N)=C1/C=C/c1coc2ccc(Cl)cc2c1=O | 18.4 µM (inactive) | 29.8 µM (inactive) | 57.7 µM (inactive) | 74 µM (inactive) | 27.4 | 17.7 µM (inactive) | 23.7 µM (inactive) | 25.7 µM (inactive) | 45.7 µM (inactive) |  | 39.2 µM (inactive) | 10.8 µM (inactive) |  |  | 31.3 µM (inactive) | 26.2 µM (inactive) |  | 47 µM (inactive)
10 | CP(=O)(CCSc1ccccc1)c1ccccc1 (configuration not stated) | > 100 µM (inactive) | > 100 µM (inactive) | > 100 µM (inactive) |  | > 100 | > 100 µM (inactive) | > 100 µM (inactive) | > 100 µM (inactive) | > 100 µM (inactive) | > 100 µM (inactive) | > 100 µM (inactive) | > 100 µM (inactive) | > 100 µM (inactive) | > 100 µM (inactive) | > 100 µM (inactive) | > 100 µM (inactive) | > 100 µM (inactive) | > 100 µM (inactive)
11 | O=[N+]([O-])c1ccc(-c2ccc(-c3csc(Nc4ccccc4)n3)o2)cc1 | 19.3 µM (inactive) | 34.6 µM (inactive) | 20.9 µM (inactive) | 14.6 µM (inactive) | 19.7 | 2.93 µM (inactive) | > 68.4 µM (inactive) | 19.5 µM (inactive) | > 55 µM (inactive) | 19.5 µM (inactive) | 15.6 µM (inactive) | 20.6 µM (inactive) |  | 17.3 µM (inactive) | 17.9 µM (inactive) | 17 µM (inactive) | 17.9 µM (inactive) | 19.1 µM (inactive)
12 | CCOC(=O)/C(=C\c1cccs1)P(=O)(OCC)OCC | 19.8 µM (inactive) | 29.4 µM (inactive) | 16 µM (inactive) | 14.2 µM (inactive) | 17.5 | 29.9 µM (inactive) | 48.2 µM (inactive) | 25.4 µM (inactive) | 21 µM (inactive) | 27.6 µM (inactive) | 20 µM (inactive) | 18.2 µM (inactive) | 15.1 µM (inactive) | 17.6 µM (inactive) | 23.2 µM (inactive) | 22.7 µM (inactive) |  | 23.8 µM (inactive)
13 | CC(=O)OC1[C@H]2c3cc4c(cc3CN3CCC(C[C@@H]1OC(C)=O)C23)OCO4 (some centres not stated) | > 75 µM (inactive) | > 75 µM (inactive) | > 75 µM (inactive) | > 75 µM (inactive) | > 75 | > 75 µM (inactive) | > 75 µM (inactive) | > 75 µM (inactive) | > 75 µM (inactive) |  | > 75 µM (inactive) |  | > 75 µM (inactive) | > 75 µM (inactive) | > 75 µM (inactive) | > 75 µM (inactive) |  | > 75 µM (inactive)
